What was measured:
Format in all cases: in vivo
[1] = test system: barnyardgrass (Echinochloa crus-galli); assay: Test A pre-/postemergence plant response; settings: for Barnyardgrass plant response rating: visual injury, 0 to 100 scale (0 no effect, 100 complete control), approx. ten days
In short: (§1)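 Both pre- and postemergence treatments are applied simultaneously, using chemicals formulated in a non-phytotoxic solvent mixture with surfactant. Postemergence plants are 2–10 cm high with one to two leaves. After approximately ten days in a greenhouse, injury is scored visually from 0 (none) to 100 (complete control) relative to untreated plants.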

corn (Zea mays) = assay: Test A pre-/postemergence plant response; settings: for Corn plant response rating: visual injury, 0 to 100 scale (0 no effect, 100 complete control), approx. ten days
In short: as §1

[2] = test system: giant foxtail (Setaria faberii); assay: Test A pre-/postemergence plant response; settings: for Foxtail, Giant plant response rating: visual injury, 0 to 100 scale (0 no effect, 100 complete control), approx. ten days
In short: as §1

[3] = test system: large crabgrass (Digitaria sanguinalis); assay: Test A pre-/postemergence plant response; settings: for Crabgrass, Large plant response rating: visual injury, 0 to 100 scale (0 no effect, 100 complete control), approx. ten days
In short: as §1

[4] = test system: morningglory (Ipomoea spp.); assay: Test A pre-/postemergence plant response; settings: for Morningglory plant response rating: visual injury, 0 to 100 scale (0 no effect, 100 complete control), approx. ten days
In short: as §1

[5] = test system: pigweed (Amaranthus retroflexus); assay: Test A pre-/postemergence plant response; settings: for Pigweed plant response rating: visual injury, 0 to 100 scale (0 no effect, 100 complete control), approx. ten days
In short: as §1

[6] = test system: velvetleaf (Abutilon theophrasti); assay: Test A pre-/postemergence plant response; settings: for Velvetleaf plant response rating: visual injury, 0 to 100 scale (0 no effect, 100 complete control), approx. ten days
In short: as §1

[7] = test system: wheat (Triticum aestivum); assay: Test A pre-/postemergence plant response; settings: for Wheat plant response rating: visual injury, 0 to 100 scale (0 no effect, 100 complete control), approx. ten days
In short: as §1

[8] = test system: canarygrass (Phalaris minor); assay: Test B postemergence plant response; settings: Postemergence
In short: (§2)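 Plants grown in peat/vermiculite medium were sprayed postemergence at 2–18 cm height (1- to 4-leaf stage). After 13–15 days in the greenhouse, response was rated visually against untreated controls on a 0–100 scale (0 no effect, 100 complete control).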

[9] = test system: chickweed (Stellaria media); assay: Test B postemergence plant response; settings: Postemergence
In short: as §2

[10] = test system: windgrass (Apera spica-venti); assay: Test B postemergence plant response; settings: Postemergence
In short: as §2

[11] = test system: winter barley (Hordeum vulgare); assay: Test B postemergence plant response; settings: Postemergence
In short: as §2

[12] = Postemergence, 125 g ai/ha, 0 to 100 scale where 0 is no effect and 100 is complete control
[13] = Preemergence, 125 g ai/ha, 0 to 100 scale, 0 = no effect, 100 = complete control
[14] = Preemergence, 500 g ai/ha, 0 to 100 scale, 0 = no effect, 100 = complete control
[15] = 31 g ai/ha, 0 to 100 scale (0 no effect, 100 complete control)
[16] = 62 g ai/ha, scale 0 to 100 (0 no effect, 100 complete control)
[17] = 125 g ai/ha, scale 0 to 100 (0 no effect, 100 complete control)
[18] = 250 g ai/ha, scale 0 to 100 (0 no effect, 100 complete control), 13 to 15 days
[19] = 125 g ai/ha, scale 0 (no effect) to 100 (complete control), 13 to 15 days

COCCn1c(-c2cccc(F)c2)ncc(C(=O)C2=C(O)C3CCC(C3)C2=O)c1=O (stereo not shown) [Compound 235]
Plant response rating, Barnyardgrass [1, 12]: 90 | Barnyardgrass plant response rating ([1]; Postemergence, 500 g ai/ha): 100 | Plant response rating, Barnyardgrass [1, 13]: 90 | Plant response rating, Barnyardgrass [1, 14]: 100 | Plant response rating, Corn (corn (Zea mays); [12]): 80 | Corn plant response rating (corn (Zea mays); Postemergence, 500 g ai/ha): 90 | Plant response rating, Corn (corn (Zea mays); [13]): 20 | Plant response rating, Corn (corn (Zea mays); [14]): 70 | Plant response rating, Foxtail, Giant [2, 12]: 90 | Foxtail, Giant plant response rating ([2]; Postemergence, 500 g ai/ha): 100 | Plant response rating, Foxtail, Giant [2, 13]: 70 | Plant response rating, Foxtail, Giant [2, 14]: 90 | Plant response rating, Crabgrass, Large [3, 12]: 100 | Crabgrass, Large plant response rating ([3]; Postemergence, 500 g ai/ha): 100 | Plant response rating, Crabgrass, Large [3, 13]: 100 | Plant response rating, Crabgrass, Large [3, 14]: 100 | Plant response rating, Morningglory [4, 12]: 100 | Morningglory plant response rating ([4]; Postemergence, 500 g ai/ha): 100 | Plant response rating, Morningglory [4, 13]: 80 | Plant response rating, Morningglory [4, 14]: 90 | Plant response rating, Pigweed [5, 12]: 100 | Pigweed plant response rating ([5]; Postemergence, 500 g ai/ha): 100 | Plant response rating, Pigweed [5, 13]: 90 | Plant response rating, Pigweed [5, 14]: 90 | Plant response rating, Velvetleaf [6, 12]: 100 | Velvetleaf plant response rating ([6]; Postemergence, 500 g ai/ha): 100 | Plant response rating, Velvetleaf [6, 13]: 100 | Plant response rating, Velvetleaf [6, 14]: 100 | Plant response rating, Wheat [7, 12]: 50 | Wheat plant response rating ([7]; Postemergence, 500 g ai/ha): 80 | Plant response rating, Wheat [7, 13]: 10 | Plant response rating, Wheat [7, 14]: 40 | Plant response rating, Canarygrass [8, 15]: 20 | Plant response rating, Canarygrass [8, 16]: 30 | Plant response rating, Canarygrass [8, 17]: 30 | Plant response rating, Canarygrass [8, 18]: 30 | Plant response rating, Chickweed [9, 15]: 98 | Plant response rating, Chickweed [9, 16]: 100 | Plant response rating, Chickweed [9, 17]: 100 | Plant response rating, Chickweed [9, 18]: 100 | Plant response rating, Windgrass [10, 15]: 85 | Plant response rating, Windgrass [10, 16]: 95 | Plant response rating, Windgrass [10, 18]: 98 | Plant response rating, Barley [11, 15]: 0 | Plant response rating, Barley [11, 16]: 30 | Plant response rating, Barley [11, 17]: 40

CCCCn1c(-c2cccc(F)c2)ncc(C(=O)C2=C(O)C3CCC(C3)C2=O)c1=O (stereo not shown) [Compound 237]
Plant response rating, Barnyardgrass [1, 12]: 100 | Barnyardgrass plant response rating ([1]; Postemergence, 500 g ai/ha): 100 | Plant response rating, Barnyardgrass [1, 13]: 20 | Plant response rating, Barnyardgrass [1, 14]: 90 | Plant response rating, Corn (corn (Zea mays); [12]): 40 | Corn plant response rating (corn (Zea mays); Postemergence, 500 g ai/ha): 80 | Plant response rating, Corn (corn (Zea mays); [13]): 0 | Plant response rating, Corn (corn (Zea mays); [14]): 50 | Plant response rating, Foxtail, Giant [2, 12]: 90 | Foxtail, Giant plant response rating ([2]; Postemergence, 500 g ai/ha): 100 | Plant response rating, Foxtail, Giant [2, 13]: 40 | Plant response rating, Foxtail, Giant [2, 14]: 90 | Plant response rating, Crabgrass, Large [3, 12]: 80 | Crabgrass, Large plant response rating ([3]; Postemergence, 500 g ai/ha): 100 | Plant response rating, Crabgrass, Large [3, 13]: 40 | Plant response rating, Crabgrass, Large [3, 14]: 100 | Plant response rating, Morningglory [4, 12]: 100 | Morningglory plant response rating ([4]; Postemergence, 500 g ai/ha): 100 | Plant response rating, Morningglory [4, 13]: 10 | Plant response rating, Morningglory [4, 14]: 80 | Plant response rating, Pigweed [5, 12]: 90 | Pigweed plant response rating ([5]; Postemergence, 500 g ai/ha): 100 | Plant response rating, Pigweed [5, 13]: 30 | Plant response rating, Pigweed [5, 14]: 100 | Plant response rating, Velvetleaf [6, 12]: 100 | Velvetleaf plant response rating ([6]; Postemergence, 500 g ai/ha): 100 | Plant response rating, Velvetleaf [6, 13]: 80 | Plant response rating, Velvetleaf [6, 14]: 100 | Plant response rating, Wheat [7, 12]: 20 | Wheat plant response rating ([7]; Postemergence, 500 g ai/ha): 70 | Plant response rating, Wheat [7, 13]: 0 | Plant response rating, Wheat [7, 14]: 30 | Plant response rating, Canarygrass [8, 15]: 30 | Plant response rating, Canarygrass [8, 16]: 40 | Plant response rating, Canarygrass [8, 19]: 50 | Plant response rating, Canarygrass [8, 18]: 50 | Plant response rating, Chickweed [9, 15]: 90 | Plant response rating, Chickweed [9, 16]: 98 | Plant response rating, Chickweed [9, 19]: 100 | Plant response rating, Chickweed [9, 18]: 100 | Plant response rating, Windgrass [10, 15]: 60 | Plant response rating, Windgrass [10, 16]: 90 | Plant response rating, Windgrass [10, 19]: 98 | Plant response rating, Windgrass [10, 18]: 100 | Plant response rating, Barley [11, 15]: 5 | Plant response rating, Barley [11, 16]: 15 | Plant response rating, Barley [11, 19]: 40 | Plant response rating, Barley [11, 18]: 40

COCCCn1c(-c2cccc(F)c2)ncc(C(=O)C2=C(O)C3CCC(C3)C2=O)c1=O (stereo not shown) [Compound 238]
Plant response rating, Barnyardgrass [1, 12]: 100 | Barnyardgrass plant response rating ([1]; Postemergence, 500 g ai/ha): 100 | Plant response rating, Barnyardgrass [1, 13]: 70 | Plant response rating, Barnyardgrass [1, 14]: 100 | Plant response rating, Corn (corn (Zea mays); [12]): 40 | Corn plant response rating (corn (Zea mays); Postemergence, 500 g ai/ha): 80 | Plant response rating, Corn (corn (Zea mays); [13]): 0 | Plant response rating, Corn (corn (Zea mays); [14]): 50 | Plant response rating, Foxtail, Giant [2, 12]: 90 | Foxtail, Giant plant response rating ([2]; Postemergence, 500 g ai/ha): 100 | Plant response rating, Foxtail, Giant [2, 13]: 50 | Plant response rating, Foxtail, Giant [2, 14]: 90 | Plant response rating, Crabgrass, Large [3, 12]: 90 | Crabgrass, Large plant response rating ([3]; Postemergence, 500 g ai/ha): 100 | Plant response rating, Crabgrass, Large [3, 13]: 90 | Plant response rating, Crabgrass, Large [3, 14]: 100 | Plant response rating, Morningglory [4, 12]: 100 | Morningglory plant response rating ([4]; Postemergence, 500 g ai/ha): 100 | Plant response rating, Morningglory [4, 13]: 40 | Plant response rating, Morningglory [4, 14]: 90 | Plant response rating, Pigweed [5, 12]: 100 | Pigweed plant response rating ([5]; Postemergence, 500 g ai/ha): 100 | Plant response rating, Pigweed [5, 13]: 100 | Plant response rating, Pigweed [5, 14]: 100 | Plant response rating, Velvetleaf [6, 12]: 100 | Velvetleaf plant response rating ([6]; Postemergence, 500 g ai/ha): 100 | Plant response rating, Velvetleaf [6, 13]: 90 | Plant response rating, Velvetleaf [6, 14]: 100 | Plant response rating, Wheat [7, 12]: 50 | Wheat plant response rating ([7]; Postemergence, 500 g ai/ha): 80 | Plant response rating, Wheat [7, 13]: 0 | Plant response rating, Wheat [7, 14]: 40 | Plant response rating, Canarygrass [8, 15]: 20 | Plant response rating, Canarygrass [8, 16]: 25 | Plant response rating, Canarygrass [8, 19]: 30 | Plant response rating, Canarygrass [8, 18]: 30 | Plant response rating, Chickweed [9, 15]: 80 | Plant response rating, Chickweed [9, 16]: 90 | Plant response rating, Chickweed [9, 19]: 100 | Plant response rating, Chickweed [9, 18]: 100 | Plant response rating, Windgrass [10, 15]: 45 | Plant response rating, Windgrass [10, 16]: 70 | Plant response rating, Windgrass [10, 19]: 85 | Plant response rating, Windgrass [10, 18]: 95 | Plant response rating, Barley [11, 15]: 10 | Plant response rating, Barley [11, 16]: 30 | Plant response rating, Barley [11, 19]: 35 | Plant response rating, Barley [11, 18]: 40

Source: patent publication US8952024B2, “Herbicidal pyrimidone derivatives” (E I du Pont de Nemours and Company, priority 2009, dated 2015)
